Test results as given in patent US20240043400A1, “Octahydroisoquinolinyl Derivatives” (UCB Biopharma SRL, priority 2020, published 2024).

Molecular target: T1, dopamine D1 receptor (Homo sapiens, UniProt P21728)
T1 construct: host or cells: LMtk (Ltk-) mouse fibroblast cells, kept under Geneticin
Assay: cAMP HTRF potentiation assay (in the presence of dopamine)
Type: cell-based
Settings: potentiation of cAMP with [EC20] of dopamine (1.1 nM); LMtk (Ltk−) mouse fibroblast cells expressing the dopamine D1 receptor
Experimental: The potentiation assay measures the ability of compounds to increase the levels of cAMP produced by a low-threshold concentration of dopamine. The concentration of dopamine used ([EC20]) is designed to produce 20% stimulation compared to the maximal response (100%) seen with increasing the concentration of dopamine. To measure this potentiation we incubate increasing concentrations of the compound with the [EC20] of dopamine and measure the potentiation as increases in cAMP production. The pEC50 of a compound is the −log 10 of the concentration of the compound which produces 50% of the potentiation of the cAMP levels and the Erel is the relative efficacy, defined as the maximal % potentiation produced by the compound compared to the maximal response produced by increasing concentrations of dopamine (Erel of 1=dopamine maximum response).
Cells were cultured at 37° C. in a humidified atmosphere of 5% CO2. Cells were grown in DMEM-F12+GlutaMAX™-1 medium (GIBCO®, Invitrogen, Merelbeke, Belgium) containing 10% fetal bovine serum (BioWhittaker®, Lonza, Verviers, Belgium), 400 μg/mL Geneticin (GIBCO®), 100 IU/mL Penicillin and 100 IU/mL Streptomycin (Pen-Strep solution, BioWhittaker®).
The measurement of changes in intracellular cyclic adenosinemonophopshpate (cAMP) was determined using the HTRF cAMP dynamic assay kit from CisBio (Codolet, France). Using homogenous time-resolved fluoresence technology, the assay is based on competition between native cAMP produced by cells and cAMP labelled with the dye d2. The tracer binding is determined by an anti-cAMP antibody labeled with cryptate. The effects of the compound alone (agonism) was determined by performing the assay in the absence of dopamine, whilst the effect of the compound as a positive allosteric modulator (PAM) was determined in the presence of an EC20 concentration of dopamine. Cells (20,000 per well) are incubated in 384 plates for 1 h at rt in a final volume of 20 μLHBSS (Lonza, with calcium, magnesium and HEPES buffer 20 mM, pH 7.4) containing: isobutyl methylxanthine (Sigma, 0.1 mM final), varying concentrations of test compound (typically 10^−9.5 M to 10^−4.5 M) in the presence and absence of dopamine (1.1 nM final). The reaction is then terminated and the cells lysed by adding the d2 detection reagent in lysis buffer (10 μL) and the cryptate reagent in lysis buffer (10 μL) according to manufacturer's instructions. This is then incubated for a further 60 min at rt and changes in HTRF fluorescent emission ratio determined according to manufacturer's instructions using an Envision plate reader (Perkin Elmer, Zaventem, Belgium) with laser excitation. All incubations were performed in duplicate and results were compared to a concentration-effect curve to dopamine. (10^−11 M to 10^−6 M).
Data was analyzed using Excel and PRISM (GraphPad Software) to obtain pEC50 and Erel using the 4-parameter logistic equation (DeLean et al, 1978) where Erel is the fitted maximal response of the test compound minus basal expressed as a percentage relative to that obtained with dopamine which was defined as 100%.

T1 sequence (P21728 whole entry): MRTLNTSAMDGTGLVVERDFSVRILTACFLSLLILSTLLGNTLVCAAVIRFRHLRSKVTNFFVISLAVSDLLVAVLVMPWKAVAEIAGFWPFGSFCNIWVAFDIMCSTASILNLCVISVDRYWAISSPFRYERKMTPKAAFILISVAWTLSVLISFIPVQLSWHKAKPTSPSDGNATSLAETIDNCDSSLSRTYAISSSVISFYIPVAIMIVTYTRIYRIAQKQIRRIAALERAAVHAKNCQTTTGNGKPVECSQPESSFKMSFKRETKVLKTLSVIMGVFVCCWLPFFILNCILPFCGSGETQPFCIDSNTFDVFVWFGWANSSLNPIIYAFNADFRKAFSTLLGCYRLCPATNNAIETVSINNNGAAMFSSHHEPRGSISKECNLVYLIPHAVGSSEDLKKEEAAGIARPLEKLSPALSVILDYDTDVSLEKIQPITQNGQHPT

SMILES	EC50 [nM]
COc1ccc(C#N)c(CC(=O)N2CC[C@@H]3[C@H](CCC[C@H]3C(C)(O)C(F)(F)F)[C@@H]2C)c1Cl (single isomer, unassigned) [Example 7-B]	794
C[C@H]1[C@H]2CCC[C@@H]([C@H](O)C(F)(F)F)[C@@H]2CCN1C(=O)Cc1c(Cl)cnc(C(O)C(F)F)c1Cl (single isomer, unassigned) [Example 15-A]	39.8
C[C@H]1[C@H]2CCC[C@@H]([C@H](O)C(F)(F)F)[C@@H]2CCN1C(=O)Cc1c(Cl)cnc(C(O)C(F)F)c1Cl (single isomer, unassigned) [Example 15-B]	25.1
C[C@H]1[C@H]2CCC[C@@H]([C@@H](O)C(F)(F)F)[C@@H]2CCN1C(=O)Cc1c(Cl)cnc(C(C)(O)C(F)F)c1Cl (single isomer, unassigned) [Example 16-B]	79.4
CC(O)c1ncc(Cl)c(CC(=O)N2CC[C@H]3[C@H]([C@H](O)C(F)F)CCC[C@@H]3[C@@H]2C)c1Cl (single isomer, unassigned) [Example 17-A]	158
CC(O)c1ncc(Cl)c(CC(=O)N2CC[C@H]3[C@H]([C@H](O)C(F)F)CCC[C@@H]3[C@@H]2C)c1Cl (single isomer, unassigned) [Example 17-B]	126
CC(O)c1ncc(Cl)c(CC(=O)N2CC[C@@H]3[C@H](CCC[C@H]3[C@](C)(O)C(F)F)[C@@H]2C)c1Cl (single isomer, unassigned) [Example 18-A]	200
CC(O)c1ncc(Cl)c(CC(=O)N2CC[C@@H]3[C@H](CCC[C@H]3[C@](C)(O)C(F)F)[C@@H]2C)c1Cl (single isomer, unassigned) [Example 18-B]	158
CC(O)c1ncc(Cl)c(CC(=O)N2CC[C@H]3[C@H](CCC(C)(C)O)CCC[C@@H]3[C@@H]2C)c1Cl (single isomer, unassigned) [Example 24-A]	79.4
CC(O)c1ncc(Cl)c(CC(=O)N2CC[C@H]3[C@H](CCC(C)(C)O)CCC[C@@H]3[C@@H]2C)c1Cl (single isomer, unassigned) [Example 24-B]	39.8
C[C@H]1[C@H]2CCC[C@@H]([C@H](O)C(F)(F)F)[C@@H]2CCN1C(=O)Cc1c(Cl)ccc(OC(F)F)c1Cl [Example 19, 1-[(1 S,4aR,5R,8aS)-1-methyl-5-[(1 S)-2,2,2-trifluoro-1-hydroxy-ethyl]-3,4,4a,5,6,7,8,8a-octahydro-1H-isoquinolin-2-yl]-2-[2,6-dichloro-3-(difluoromethoxy)phenyl]ethanone]	200
COc1ccc(C#N)c(CC(=O)N2CC[C@H]3C(C#CC(C)(C)O)CCC[C@@H]3[C@@H]2C)c1Cl (stereo partly drawn) [Example 20, 2-[2-[(1S,4aS,8aS)-5-(3-hydroxy-3-methyl-but-1-ynyl)-1-methyl-3,4,4a,5,6,7,8,8a-octahydro-1H-isoquinolin-2-yl]-2-oxo-ethyl]-3-chloro-4-methoxy-benzonitrile]	158
COc1ccc(C#N)c(CC(=O)N2CC[C@H]3[C@H](CCC(C)(C)O)CCC[C@@H]3[C@@H]2C)c1Cl [Example 21, 2-[2-[(1S,4aS,5S,8aS)-5-(3-hydroxy-3-methyl-butyl)-1-methyl-3,4,4a,5,6,7,8,8a-octahydro-1H-isoquinolin-2-yl]-2-oxo-ethyl]-3-chloro-4-methoxy-benzonitrile]	50.1
C[C@H]1[C@H]2CCC[C@@H](CCC(C)(C)O)[C@@H]2CCN1C(=O)Cc1c(Cl)ccc2c1c(Cl)nn2C [Example 22, 1-[(1S,4aS,5S,8aS)-5-(3-hydroxy-3-methyl-butyl)-1-methyl-3,4,4a,5,6,7,8,8a-octahydro-1H-isoquinolin-2-yl]-2-(3,5-dichloro-1-methyl-indazol-4-yl)ethanone]	200
C[C@H]1[C@H]2CCC[C@@H](CCC(C)(C)O)[C@@H]2CCN1C(=O)Cc1c(Cl)cnc(CO)c1Cl [Example 23, 1-[(1S,4aS,5S,8aS)-5-(3-hydroxy-3-methyl-butyl)-1-methyl-3,4,4a,5,6,7,8,8a-octahydro-1H-isoquinolin-2-yl]-2-[3,5-dichloro-2-(hydroxymethyl)-4-pyridyl]ethanone]	50.1
COc1ccc(C#N)c(CC(=O)N2CC[C@@H]3[C@H](CCC[C@H]3c3cn[nH]n3)[C@@H]2C)c1Cl [Example 25, 2-[2-[(1S,4aR,5R,8aS)-1-methyl-5-(2H-triazol-4-yl)-3,4,4a,5,6,7,8,8a-octahydro-1H-isoquinolin-2-yl]-2-oxoethyl]-3-chloro-4-methoxybenzonitrile]	631
C[C@H]1[C@H]2CCC[C@@H]([C@H](O)C(F)(F)F)[C@@H]2C[C@H](CO)N1C(=O)Cc1c(Cl)ccc2c1c(Cl)nn2C [Example 26-A, 1-[(1S,3R,4aR,5R,8aS)-3-(hydroxymethyl)-1-methyl-5-[(1S)-2,2,2-trifluoro-1-hydroxy-ethyl]-3,4,4a,5,6,7,8,8a-octahydro-1H-isoquinolin-2-yl]-2-(3,5-dichloro-1-methyl-indazol-4-yl)ethanone]	3160
C[C@H]1[C@@H]2CCC[C@H]([C@H](O)C(F)(F)F)[C@H]2C[C@H](CO)N1C(=O)Cc1c(Cl)ccc2c1c(Cl)nn2C [Example 26-B, 1-[(1S,3R,4aS,5S,8aR)-3-(hydroxymethyl)-1-methyl-5-[(1S)-2,2,2-trifluoro-1-hydroxy-ethyl]-3,4,4a,5,6,7,8,8a-octahydro-1H-isoquinolin-2-yl]-2-(3,5-dichloro-1-methyl-indazol-4-yl)ethanone]	50.1
C[C@H]1[C@H]2CCC[C@@H]([C@H](O)C(F)(F)F)[C@@H]2CCN1C(=O)Cc1c(Cl)ccc2c1c(Cl)cn2C [Example 27, 1-[(1 S,4aR,5R,8aS)-1-methyl-5-[(1 S)-2,2,2-trifluoro-1-hydroxy-ethyl]-3,4,4a,5,6,7,8,8a-octahydro-1H-isoquinolin-2-yl]-2-(3,5-dichloro-1-methyl-indol-4-yl)ethanone]	251

Molecular target: T2, human GABAA receptor α1β2 and γ2 subunits (Homo sapiens, UniProt P14867+P18507+P47870)
T2 construct: expressed in transfected cells
T2 sequence (P14867 28-456): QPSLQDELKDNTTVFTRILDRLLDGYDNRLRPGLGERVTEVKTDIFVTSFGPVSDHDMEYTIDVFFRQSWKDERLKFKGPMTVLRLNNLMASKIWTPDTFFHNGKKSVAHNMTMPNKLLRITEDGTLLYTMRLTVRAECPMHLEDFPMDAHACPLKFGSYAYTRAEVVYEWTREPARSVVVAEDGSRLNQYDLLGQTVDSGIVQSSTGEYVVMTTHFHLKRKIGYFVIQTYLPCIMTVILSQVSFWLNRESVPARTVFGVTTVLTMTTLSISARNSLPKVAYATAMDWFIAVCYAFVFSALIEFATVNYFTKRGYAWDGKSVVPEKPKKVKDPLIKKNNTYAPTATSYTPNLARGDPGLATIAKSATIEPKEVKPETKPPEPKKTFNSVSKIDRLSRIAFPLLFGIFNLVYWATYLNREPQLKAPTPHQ
T2 sequence (P47870 25-512 limits assumed): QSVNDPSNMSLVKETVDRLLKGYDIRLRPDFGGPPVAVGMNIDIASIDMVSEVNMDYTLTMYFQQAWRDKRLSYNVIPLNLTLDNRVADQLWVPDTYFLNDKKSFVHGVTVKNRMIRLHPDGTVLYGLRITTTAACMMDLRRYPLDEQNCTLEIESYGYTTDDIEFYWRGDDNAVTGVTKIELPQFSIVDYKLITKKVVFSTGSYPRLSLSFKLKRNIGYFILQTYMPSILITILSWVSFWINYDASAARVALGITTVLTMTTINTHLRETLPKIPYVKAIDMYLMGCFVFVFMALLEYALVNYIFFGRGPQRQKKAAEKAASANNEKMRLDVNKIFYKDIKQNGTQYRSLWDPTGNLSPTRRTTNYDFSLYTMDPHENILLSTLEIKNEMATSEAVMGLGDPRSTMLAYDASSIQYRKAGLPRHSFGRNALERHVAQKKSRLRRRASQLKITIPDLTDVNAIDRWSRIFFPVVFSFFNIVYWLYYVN
T2 sequence (P18507 40-475): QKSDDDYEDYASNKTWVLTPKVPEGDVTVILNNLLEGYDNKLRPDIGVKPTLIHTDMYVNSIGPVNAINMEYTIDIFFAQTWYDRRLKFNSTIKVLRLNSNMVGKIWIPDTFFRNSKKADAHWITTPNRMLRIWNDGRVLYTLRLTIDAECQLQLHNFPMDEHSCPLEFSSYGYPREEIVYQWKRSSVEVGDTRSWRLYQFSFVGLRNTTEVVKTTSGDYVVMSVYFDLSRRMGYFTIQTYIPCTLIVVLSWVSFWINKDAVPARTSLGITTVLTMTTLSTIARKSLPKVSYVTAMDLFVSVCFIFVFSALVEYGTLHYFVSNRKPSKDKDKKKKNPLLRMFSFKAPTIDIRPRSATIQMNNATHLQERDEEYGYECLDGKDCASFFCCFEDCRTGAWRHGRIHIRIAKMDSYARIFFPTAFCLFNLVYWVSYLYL
Assay: Automated patch clamp studies on the GABAA receptor cells
Type: cell-based
Settings: 10 μM compound; 15 μM GABA; CHO-K1 cells; Table B
Experimental: CHO-K1 cells stably expressing human GABAA receptor α1β2 and γ2 subunits were used. The cells were harvested using trypsin and maintained in serum-free medium at room temperature. The cells were washed and re-suspended in extracellular solution before testing.
Experiments on human GABAA (α1β2γ2) channels were conducted using an automated patch clamp assay (lonFlux™ HT). The external solution for recording GABAA currents was composed of sodium chloride 137 mM, potassium chloride 4 mM, calcium chloride 1.8 mM, magnesium chloride 1 mM, HEPES 10 mM, and glucose 10 mM. Both external and internal solutions were titrated with NaOH or KOH to obtain a pH of 7.35 and 7.3, respectively. The internal pipette solution contained potassium fluoride 70 mM, potassium chloride 60 mM, sodium chloride 70 mM, HEPES 5 mM, EGTA 5 mM, and Magnesium ATP 4 mM. The final concentration of vehicle used to dilute compounds was 0.33% DMSO in each well. Bicuculline (0.032 to 100 μM) was used as positive control inhibitor. GABA (15 μM) was used as agonist. All recordings were obtained from a holding potential of −60 mV.
The compound addition sequence was the following: one addition of the EC80 concentration of GABA was added to establish baseline response. Each concentration of compound was applied for 30 seconds followed by the addition of 15 μM GABA in the presence of the compound for 2 seconds. The process was repeated with the next ascending concentration of compound. Peak inward currents in response to the GABA additions in the presence of a single concentration of compound were measured. All compound data have been normalized to the baseline peak current induced by addition of 15 μM GABA for 2 seconds.

SMILES	% GABAA inhibition [%]
COc1ccc(C#N)c(CC(=O)N2CC[C@@H]3[C@H](CCC[C@H]3C(C)(O)C(F)(F)F)[C@@H]2C)c1Cl (single isomer, unassigned) [Example 7-B]	1.4

Molecular target: T3, CYP3A4 (Homo sapiens, UniProt P08684)
T3 construct: cryopreserved human microsomes (pooled donors); from tissue
T3 sequence (P08684 whole entry): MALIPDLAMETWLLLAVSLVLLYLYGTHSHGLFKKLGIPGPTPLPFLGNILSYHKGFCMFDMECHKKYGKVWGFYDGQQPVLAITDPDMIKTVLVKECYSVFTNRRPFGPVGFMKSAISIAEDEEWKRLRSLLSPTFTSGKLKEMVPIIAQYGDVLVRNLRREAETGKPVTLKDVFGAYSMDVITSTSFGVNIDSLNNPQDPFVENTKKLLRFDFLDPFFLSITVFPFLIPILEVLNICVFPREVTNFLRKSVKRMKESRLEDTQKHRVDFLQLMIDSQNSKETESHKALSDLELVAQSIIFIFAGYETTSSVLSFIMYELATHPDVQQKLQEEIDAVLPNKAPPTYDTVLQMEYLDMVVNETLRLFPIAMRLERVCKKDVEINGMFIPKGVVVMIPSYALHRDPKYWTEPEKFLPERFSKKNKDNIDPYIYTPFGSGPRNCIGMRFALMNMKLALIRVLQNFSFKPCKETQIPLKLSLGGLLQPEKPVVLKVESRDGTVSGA
Assay: In vitro assessment of CYP3A4 inhibition potential using cryopreserved human microsomes
Type: in vitro ADME
Settings: human, cryopreserved human microsomes (pooled donors), probe midazolam 2.5 μM (1-hydroxymidazolam formation), 20 μM compound, human microsomes 0.25 mg/ml, Table C
Experimental: The objective of the human microsome assay is to characterize the inhibition potential of Compound of formula (I) by measuring the CYP3A4 activities after its co-incubation with midazolam, a specific CYP3A4 substrate.
To this aim, cryopreserved human microsomes (pooled donors) are divided on a 48 well collagen coated plate so that the final concentration is 0.25 mg/ml. The UCB compound is then added in the wells at 20 μM concentration in duplicate. After 30 min incubation, midazolam is added at 2.5 μM concentration. After 15 min, an aliquot is removed and placed into an equal volume of methanol containing internal standard. The samples are centrifuged at 2500 rpm at 4° C. for 20 min. An aliquot of supernatant is diluted with deionised water and levels of 1-hydroxymidazolam is quantified using generic LC MS/MS methods.
The concentrations are compared to those obtained after midazolam incubation at the same concentration but without UCB compound pre-incubation. The results are expressed as % of inhibition.

SMILES	inhibition at 15 min, 20 μM [%]
C[C@H]1[C@H]2CCC[C@@H]([C@H](O)C(F)(F)F)[C@@H]2CCN1C(=O)Cc1c(Cl)cnc(C(O)C(F)F)c1Cl (single isomer, unassigned) [Example 15-A]	≤ 20
